Test results published in patent publication US8247377B2, “Non-steroidal glucocorticoid inhibitors and their use in treating inflammation, allergy and auto-immune conditions” (Glaxo Group Limited, priority 2006, dated 2012).

What was measured:
[1] = Assay for brain penetrance; assay type: in vivo; conditions: brain and plasma, rat, single intravenous dose 1 mg/kg, read-out: brain to plasma ratio
Experimental: Each rat received a single intravenous dose at a level of 1 mg/kg. The dose was formulated in 10% DMSO/50% PEG200/40% sterile water. Terminal blood samples were taken at 5 or 15 minutes after dosing, by cardiac puncture following anaesthesia with isofluorane. The brains were removed at the same time point.
The compounds were extracted from 20 μL plasma by protein precipitation using 120 μL acetonitrile containing an analogue compound as an internal standard. The filtered extracts were collected into a 96 well plate and were diluted with an equal volume of 10% acetonitrile containing 0.1% formic acid in water (v/v). The plate was then mixed on a plate shaker for at least 5 minutes before analysis by LC-MS/MS against a calibration line prepared in control plasma.
Each brain was weighed, then homogenised in 3 ml acetonitrile:water (10:90 v/v). The compounds were extracted from 200 μL of the resulting homogenate by protein precipitation using 600 μL acetonitrile containing an analogue compound as an internal standard. The extracts were centrifuged and 150 μl of each was filtered and transferred to a 96 well plate. The aliquot was diluted with 10% acetonitrile containing 0.1% formic acid in water (v/v). The plate was mixed on a plate shaker for at least 5 minutes before analysis by LC-MS/MS against a calibration line prepared in control brain homogenate.

progesterone receptor = molecular target: T1, progesterone receptor (Homo sapiens, UniProt P06401); assay: Assay for progesterone receptor activity (CV-1 cells, PRb-BacMam/MMTV-BacMam); assay type: cell-based; conditions: CV-1 cells transduced with PRb-BacMam and MMTV-BacMam; read-out: pEC50 progesterone receptor activity (converted)
T1 construct: expressed in transfected cells; host or cells: CV-1 cells transduced with PRb-BacMam and MMTV-BacMam
T1 sequence (P06401 1-933): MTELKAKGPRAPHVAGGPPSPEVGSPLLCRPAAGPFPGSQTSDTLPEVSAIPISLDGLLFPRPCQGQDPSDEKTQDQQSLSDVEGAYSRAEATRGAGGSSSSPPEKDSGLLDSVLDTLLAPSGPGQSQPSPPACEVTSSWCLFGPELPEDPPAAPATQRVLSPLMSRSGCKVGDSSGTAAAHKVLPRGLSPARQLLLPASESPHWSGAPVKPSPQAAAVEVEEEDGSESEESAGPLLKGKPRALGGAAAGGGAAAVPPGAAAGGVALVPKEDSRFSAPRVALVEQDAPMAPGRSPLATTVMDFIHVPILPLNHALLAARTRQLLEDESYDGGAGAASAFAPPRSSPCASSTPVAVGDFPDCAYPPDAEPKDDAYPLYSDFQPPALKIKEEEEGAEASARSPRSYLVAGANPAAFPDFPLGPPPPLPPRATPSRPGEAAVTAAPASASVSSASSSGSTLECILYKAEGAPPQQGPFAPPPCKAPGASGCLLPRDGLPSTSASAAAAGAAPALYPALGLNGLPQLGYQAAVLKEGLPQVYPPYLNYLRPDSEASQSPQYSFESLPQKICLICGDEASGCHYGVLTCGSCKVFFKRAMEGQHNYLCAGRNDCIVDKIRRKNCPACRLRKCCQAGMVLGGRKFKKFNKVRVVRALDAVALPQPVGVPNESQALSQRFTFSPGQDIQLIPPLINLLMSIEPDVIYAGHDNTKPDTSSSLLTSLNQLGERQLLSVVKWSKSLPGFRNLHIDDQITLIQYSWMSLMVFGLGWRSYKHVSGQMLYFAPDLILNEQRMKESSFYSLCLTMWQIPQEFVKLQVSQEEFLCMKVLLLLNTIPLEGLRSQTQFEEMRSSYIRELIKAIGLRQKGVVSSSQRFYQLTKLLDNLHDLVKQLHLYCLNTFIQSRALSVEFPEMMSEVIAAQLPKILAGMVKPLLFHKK
Experimental: A T225 flask of CV-1 cells at a density of 80% confluency was washed with PBS, detached from the flask using 0.25% trypsin and counted using a Sysmex KX-21N. Cells were diluted in DMEM containing 10% Hyclone, 2 mM L-Glutamate and 1% Pen/Strep at 140 cells/μl and transduced with 10% PRb-BacMam and 10% MMTV-BacMam. […] of suspension cells were dispensed to each well of white Nunc 384-well plates, containing compounds at the required concentration. After 24 h 10 μl of Steadylite were added to each well of the plates. Plates were incubated in the dark for 10 min before reading them on a Viewlux reader. Dose response curves were constructed from which pEC50 values were estimated.

glucocorticoid receptor = molecular target: T2, glucocorticoid receptor (Homo sapiens, UniProt P04150); assay: Glucocorticoid receptor binding assay (fluorescence polarisation); conditions: competition with Alexa 555 fluorescently-labelled dexamethasone derivative, full length glucocorticoid receptor; read-out: glucocorticoid binding pIC50 (converted)
T2 construct: a partially purified full length glucocorticoid receptor
T2 sequence (P04150 1-777): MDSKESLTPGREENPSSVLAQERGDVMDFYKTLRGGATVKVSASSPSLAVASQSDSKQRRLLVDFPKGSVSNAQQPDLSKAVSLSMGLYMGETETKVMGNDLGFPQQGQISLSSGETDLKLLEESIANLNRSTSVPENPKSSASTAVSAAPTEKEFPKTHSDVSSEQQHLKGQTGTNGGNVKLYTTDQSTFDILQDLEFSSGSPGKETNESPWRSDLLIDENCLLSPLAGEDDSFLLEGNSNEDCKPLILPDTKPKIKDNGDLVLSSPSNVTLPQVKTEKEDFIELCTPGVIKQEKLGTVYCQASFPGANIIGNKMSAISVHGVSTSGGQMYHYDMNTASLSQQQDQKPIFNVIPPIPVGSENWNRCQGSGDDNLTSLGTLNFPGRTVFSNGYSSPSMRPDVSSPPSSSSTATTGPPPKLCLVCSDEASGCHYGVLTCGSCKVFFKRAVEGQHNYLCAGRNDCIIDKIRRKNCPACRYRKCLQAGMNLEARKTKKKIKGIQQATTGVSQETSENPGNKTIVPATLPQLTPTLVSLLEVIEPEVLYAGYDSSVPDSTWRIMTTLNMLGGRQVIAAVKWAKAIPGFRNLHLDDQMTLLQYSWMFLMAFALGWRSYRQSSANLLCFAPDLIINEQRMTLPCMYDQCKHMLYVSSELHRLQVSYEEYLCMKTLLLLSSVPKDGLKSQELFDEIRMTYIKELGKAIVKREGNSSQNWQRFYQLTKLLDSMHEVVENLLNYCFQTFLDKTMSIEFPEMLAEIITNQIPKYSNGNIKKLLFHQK
Experimental: Compounds were solvated and diluted in DMSO, and transferred directly into assay plates. Fluorescent dexamethasone and a partially purified full length glucocorticoid receptor were added to the plates, together with buffer components to stabilise the GR protein and incubated at room temperature for 2 hrs in the dark. Binding of each compound was assessed by analysing the displacement of fluorescent ligand by measuring the decrease in fluorescence polarisation signal from the mixture. Dose response curves were constructed from which pIC50 values were estimated.

NFκB = NFκB agonist assay in A549 SPAP cells; assay type: cell-based; conditions: Homo sapiens; A549 SPAP cells, TNFα 3.2 ng/ml; read-out: pIC50 for the NFkB assay (converted)
Description: Human lung carcinoma A549 cell line (ECACC No. 86012804) has been stably transfected in house with a plasmid containing an ELAM promoter sequence that has a NFκB response element within it. Stimulation of the cell line with TNFα results in intracellular signal transduction and ultimately translocation of NFκB into the nucleus. This activates the inserted DNA sequence resulting in transcription of the integrated SPAP gene, which is quantified using a colorimetric assay. […] The stably transfected cell line was grown as a monolayer in DMEM supplemented with FCS-HI (10%), Non-essential amino acids (1%), L-Glutamine (2 mM), Pen/Strep (1%) and Geneticin (50 mg/ml).
A 70% confluent T225 flask of A549 SPAP cells was harvested by centrifugation for 5 min at 200 g, resuspended in assay buffer (DMEM supplemented with 10% FCS 2×HI, 2 mM L-Glutamine, 1% Pen/Strep and Non essential amino acids) and diluted to 0.16×10^6/ml. 60 μl of cell solution was dispensed to each well of clear Nunc 384-well plates, containing compound at the required concentration. Plates were incubated for 1 h at 37° C., 95% humidity, 5% CO2 before 10 μl of TNFα was added at final concentration of 3.2 ng/ml and then returned to the cell incubator for 15 h. Plates were equilibrated to room temperature for 1 h prior to the addition of 25 μl of pNPP buffer (1M Diethanolamine pH 9.8, 0.5 mM MgCl2, 0.28M NaCl, 2 mg/ml pNPP) to each well of assay plates. The plates were covered to protect the reagents from light, and then incubated at room temperature for approximately 1 hour before reading them on an Ascent using a 405 nm single filter. Dose response curves were constructed from which pIC50 values were estimated.

## CCN(CC(O)(CNC(=O)c1cnn(-c2ccc(F)cc2)c1N)C(F)(F)F)C(=O)c1c(F)cccc1F (single isomer, unassigned) [Example 5 Enantiomer 1, 5-Amino-N-(2-{[[(2,6-difluorophenyl)carbonyl](ethyl)amino]methyl}-3,3,3-trifluoro-2-hydroxypropyl)-1-(4-fluorophenyl)-1H-pyrazole-4-carboxamide]
[1]
  Kp at 5 min: ≥ 0.1
Progesterone receptor
  EC50: > 1000 nM
Glucocorticoid receptor
  IC50: ≤ 316 nM
NFκB
  IC50: < 1000 nM
